Laboratory results from PMC9237417, “HupZ, a Unique Heme-Binding Protein, Enhances Group A Streptococcus Fitness During Mucosal Colonization” (Frontiers in Cellular and Infection Microbiology, 2022).

Experiments:
MBP-HupZ = molecular target: T1, MBP-HupZ (Streptococcus pyogenes, UniProt Q9A0B9); assay: UV-VIS Soret shift of heme-loaded protein; assay type: binding; conditions: holo protein (heme b bound); 1.6 mM imidazole as axial ligand of the heme iron; pH 7.4
T1 construct: gene SPy_0844; N-terminal MBP fusion kept (pKV135); E. coli BL21(DE3); monomer on native PAGE
T1 sequence (Q9A0B9 entry or part of it): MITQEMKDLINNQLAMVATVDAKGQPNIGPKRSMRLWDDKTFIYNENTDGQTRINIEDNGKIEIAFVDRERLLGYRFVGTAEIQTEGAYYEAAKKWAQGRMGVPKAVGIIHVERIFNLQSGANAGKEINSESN

tag-less HupZ = molecular target: T2, tag-less HupZ (Streptococcus pyogenes, UniProt Q9A0B9); assay: UV-VIS Soret shift of heme-loaded protein; assay type: binding; conditions: holo protein (heme b bound); 1.6 mM imidazole as axial ligand of the heme iron; pH 7.4
T2 construct: gene SPy_0844; full-length HupZ from His-MBP-HupZ, tag cut by TEV protease leaving a serine residue; expressed in E. coli; 15 kD on SDS-PAGE
T2 sequence (Q9A0B9 entry or part of it): as above

c1c[nH]cn1 [imidazole]
UV-VIS Soret shift of heme-loaded protein (MBP-HupZ): exogenous imidazole can coordinate the iron in holo tag-less and MBP-HupZ
UV-VIS Soret shift of heme-loaded protein (tag-less HupZ): exogenous imidazole can coordinate the iron in holo tag-less and MBP-HupZ
